Data on five molecules can be found in patent publication US9315465B2, “Photostable AIE luminogens for specific mitochondrial imaging and its method of manufacturing thereof” (THE HONG KONG UNIVERSITY OF SCIENCE AND TECHNOLOGY, priority 2013, dated 2016).

SMILES strings stand for the structures.

The subject of one data set is mitochondria. The data set is described as follows: Effect of CCCP on mitochondria (pH, ΔΨm, morphology). It counts as cell-based. As to the method:
Excitation wavelength: 405 nm; emission filter: 449-520 nm; irradiation time: 15.49 sec/scan.
(§1) To test the tolerance of TPE-TPP and MT to the change of mitochondrial ΔΨm, carbonyl cyanide m-chlorophenylhydrazone (CCCP) was used to treat the cells prior to the staining procedure. CCCP is an uncoupler that causes rapid acidification of the mitochondria and dysfunction of ATP synthase resulting in the decrease of the mitochondrial ΔΨm. Upon treatment with 20 μM CCCP, the pH of mitochondria decreased about 0.7 and ΔΨm thus decreased around 40 mV according to the Nernst equation. […] Since the targeting of MT to mitochondria is driven by the huge ΔΨm, the decrease of ΔΨm, will affect the direction and accumulation of cationic MT to mitochondria. It was expected that similar phenomena would be observed for TPE-TPP as it shares a similar working principle.
The high tolerance of TPE-TPP to the decrease of ΔΨm enables the observation of change of mitochondrial morphology induced by CCCP. […] The early stage of apoptosis involves remodeling of mitochondrial cristae and the consequent occurrence of morphological change of mitochondria, which is considered as an irreversible process associated with the collapse of ΔΨm. TPE-TPP has excellent specificity to mitochondria with outstanding photostability and tolerance to microenvironment change, representing a potential candidate of tracking agent for apoptosis studies.

Data set [1] concerns mitochondria of CCCP-treated HeLa cells. The data set is described as follows: Tolerance of mitochondrial staining to decrease of mitochondrial ΔΨm (CCCP-treated cells). The conditions noted are these: HeLa cells treated with 10 μM CCCP prior to staining. It counts as cell-based.
Text: Excitation wavelength: 540-580 nm (for MT) and 330-385 nm (for TPE-TPP).
as §1, with “Upon treatment with 20 μM CCCP, the pH of mitochondria decreased about 0.7 and ΔΨm thus decreased around 40 mV according to the Nernst equation.” left out

Data set [2] relates to reactive oxygen species (ROS). Put plainly: ROS detection with H2DCFDA under UV irradiation. The conditions noted are these: solution of TPE-IQ 10 μM and H2DCFDA 1 μM, intensity at 521 nm. Here is the method:
Concentration of TPE-IQ: 10 μM; concentration of H2DCFDA: 1 μM.
(§2) With UV irradiation, the morphology of mitochondria changed gradually, indicating the initiation of the cell apoptosis process. […] To understand the underlying mechanism of TPE-IQ induced cell apoptosis, reactive oxygen species (ROS) detection agent H2DCFDA was utilized. […] This means that TPE-IQ could be utilized as a sensitizer for ROS generation, to induce cell apoptosis. Considering the mitochondria targeting of the probe, TPE-IQ could be used as an apoptosis inducer while enabling observation of the morphology change of the mitochondria at the same time. Besides, the probe may be utilized in phototherapy for selectively killing specific cells, while allowing for the study of how cells communicate when one cell undergoes the apoptosis process.

Data set [3] has as its system mitochondria of the living HeLa cells. The data set is described as follows: Mitochondria staining and co-localization by fluorescence microscopy. It counts as cell-based. As to the method: TPE-TPP was then assessed for its ability to localize and stain mitochondria in living cells by fluorescence microscope. Cervical cancer HeLa cells were incubated with 5 μM TPE-TPP for 1 h and excess dyes were washed away by buffer solution.
Pearson's correlation coefficient (Rr; from +1 to −1), which indicates the degree of linear dependence between two variables, is used to quantify the overlapping of the staining region between TPE-TPP and MT.
In FIG. 7A, cells were incubated with TPE-TPP for 1 h.
An AIE luminogen targeting mitochondria specifically with red fluorescence emission was also synthesized, i.e., TPE-MitoR, (E)-1-ethyl-3,3-dimethyl-2-(2-(4′(1,2,2-triphenylvinyl)-[1,1′-biphenyl]-4-yl)vinyl)-3H-indol-1-ium hexafluorophosphate. […] TPE-MitoR's ability for tracking mitochondria is evaluated by colocalizing with TPE-TPP (FIG. 14).
In addition, cell fixation is important for sample preserving.

For another data set, the system named is HeLa cell. The data set is described as follows: UV-irradiation induced mitochondrial morphology change / apoptosis in stained cells. Format: cell-based. Conditions: HeLa cell stained with TPE-IQ, UV 6 s then 15 min in the dark.
Text: (A) 1 s; (B) 2 s; (C) 6 s; (D) 11 s.
as §2

The text on data set [4]: The TPE core was synthesized simply from a McMurry coupling reaction. TPP was attached through bromination and subsequent reaction with triphenylphosphine.
A short description of data set [5]: Particle size analysis of nanoaggregates. It counts as physicochemical. Conditions: aqueous solution containing 0.1% DMSO, identical condition for cell staining. An excerpt: The DMF solution of TPE-TPP was almost non-emissive while the solid state is strongly luminescent at 466 nm. […] The scheme of synthesis of said TPP-functionalized TPE is as follow: […]

A further data set concerns HeLa cells. The data set is described as follows: Cytotoxicity by MTT assay. It counts as cell-based. Conditions: added to the culture medium. Here is the method:
Applying an organelle tracker into living sample, the cytotoxicity of the probe, TPE-TPP, was evaluated using the 3-(4,5-dimethyl-2-thiazolyl)-2,5-diphenyltetrazolium bromide (MTT) assay (FIG. 6).
(Formazan colour is commonly taken as a measure of viable cells.)

Regarding `N#CC(C#N)=NNc1cccc(Cl)c1` [CCCP, carbonyl cyanide m-chlorophenylhydrazone], in the data set on mitochondria (20 μM CCCP), the “decrease of pH of mitochondria” value is reported as “about 0.7”. Moreover, the “decrease of ΔΨm” value in the data set with mitochondria (20 μM CCCP, according to the Nernst equation) is reported as “around 40 mV”. In addition, the “change of mitochondrial morphology” value in the data set with mitochondria (living HeLa cells exposed to CCCP (20 μM), stained with TPE-TPP) was “gradually transformed to small and dispersed fragments”.
In the case of `CN1C(=CC=Cc2n(Cc3ccc(CCl)cc3)c3cc(Cl)c(Cl)cc3[n+]2Cc2ccc(CCl)cc2)C(C)(C)c2ccccc21.[Cl-]` [MT], in data set [1], the “specificity and sensitivity to mitochondria in CCCP-treated cells” value was “no more specificity to mitochondria and the sensitivity became worse”.
With `CCC[n+]1cc2ccc(C(=C(c3ccccc3)c3ccccc3)c3ccccc3)cc2c(-c2ccccc2)c1-c1ccccc1` [TPE-IQ, 3,4-diphenyl-2-propyl-6-(1,2,2-triphenylvinyl)isoquinolin-2-ium tetrafluoroborate], the “H2DCFDA fluorescence (ROS production) with continuous UV irradiation” value in data set [2] was “increased gradually”. Further, the “mitochondria targeting in fixed cells” value in data set [3] (HeLa cells after 4% paraformaldehyde (PFA) fixation for 50 min) is “could still target to the mitochondria”. Besides, the “incubation time sufficient for lighting up the mitochondria” value in data set [3] (HeLa cells, 200 nM) was determined as 10 min. Moreover, the “emission from the mitochondria of the cells” value in data set [3] (HeLa cells, 500 nM, 1 min incubation) is listed as “strong emission”. In the data set on HeLa cell, the “mitochondrial morphology after UV irradiation” value is reported as “changed substantially”.
For `CC[N+]1=C(/C=C/c2ccc(-c3ccc(C(=C(c4ccccc4)c4ccccc4)c4ccccc4)cc3)cc2)C(C)(C)c2ccccc21` [TPE-MitoR, (E)-1-ethyl-3,3-dimethyl-2-(2-(4′(1,2,2-triphenylvinyl)-[1,1′-biphenyl]-4-yl)vinyl)-3H-indol-1-ium hexafluorophosphate], in data set [3] (HeLa cells, 5 μM, 30 min), the “ability for tracking mitochondria (colocalization with TPE-TPP)” value is given as “promising result in locating mitochondria”.
Regarding `[Br-].[Br-].c1ccc(C(=C(c2ccccc2)c2ccc(C[P+](c3ccccc3)(c3ccccc3)c3ccccc3)cc2)c2ccc(C[P+](c3ccccc3)(c3ccccc3)c3ccccc3)cc2)cc1` [TPE-TPP, Bis(Triphenylphosphonium) Tetraphenylethene], the “solubility in aqueous solution” value in data set [4] (aqueous solution) is “relatively poor solubility”. The “solubility in polar solvents” value in data set [4] (polar solvents such as DMF and DMSO) is “completely soluble”. In addition, the “specificity and sensitivity to mitochondria in CCCP-treated cells” value in data set [1] is listed as “perfectly retained”. This molecule also displayed an average particle size in data set [5] of 144 nm. Besides, the “concentration up to which cell viability is not significantly altered” value in the data set on HeLa cells is given as “up to 7.5 μM”. For the same molecule, in data set [3] (HeLa cells, 5 μM, 1 h), the “localization of staining in living cells” value is reported as “stains specifically the mitochondrial region”. Moreover, the “staining time sufficient to enter and light up mitochondria” value in data set [3] (HeLa cells, data not shown) was 15 min. The “Pearson's correlation coefficient (Rr) of overlap with MitoTracker Red FM (MT)” value in data set [3] (co-staining in living HeLa cells, TPE-TPP 5 μM, MT 50 nM) came to 0.96.
